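Cultured in 96-well plates, cells were exposed to test compound for 48 hours across five concentrations. GI50 marks 50% less growth.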 The source made the active and inactive calls. No stated cut-off is given here; in the data, active = GI50 up to about 1.1 µM and inactive = higher.
Assays:
Assay in all cases: NCI tumour cell line growth inhibition, 48 h
SNB-19 = system: SNB-19
RPMI-8226 = system: RPMI-8226
NCI-H226 = system: NCI-H226
MDA-MB-231 = system: MDA-MB-231
NCI-H460 = system: NCI-H460
SF-268 = system: SF-268
NCI/ADR-RES = system: NCI/ADR-RES
NCI-H522 = system: NCI-H522
MDA-MB-435 = system: MDA-MB-435
MCF7 = system: MCF7
UACC-62 = system: UACC-62
HOP-62 = system: HOP-62
OVCAR-5 = system: OVCAR-5
KM12 = system: KM12
OVCAR-8 = system: OVCAR-8
HT-29 = system: HT-29
NCI-H23 = system: NCI-H23
UO-31 = system: UO-31
SW-620 = system: SW-620
OVCAR-3 = system: OVCAR-3

Measured: GI50

C[C@H](CCC(=O)O)[C@H]1CC[C@H]2[C@@H]3[C@H](O)C[C@@H]4C[C@H](O)CC[C@]4(C)[C@H]3CC[C@]12C [CHENODIOL]
inactive: SNB-19 43.8 µM | RPMI-8226 22.6 µM | NCI-H226 22.2 µM | MDA-MB-231 49.3 µM | NCI-H460 27.1 µM | SF-268 44.1 µM | NCI/ADR-RES 36.6 µM | NCI-H522 25.5 µM | MDA-MB-435 37 µM | MCF7 30.8 µM | UACC-62 36.6 µM | HOP-62 37.2 µM | OVCAR-5 52.6 µM | KM12 33.3 µM | OVCAR-8 12.1 µM | HT-29 24.3 µM | NCI-H23 27.9 µM | UO-31 21.4 µM | SW-620 41.7 µM

CC1(C)OC2C(O)C(CO)OC2(C(F)F)O1 (stereo unspecified)
inactive: SNB-19 > 47.1 µM | RPMI-8226 > 100 µM | NCI-H226 > 100 µM | MDA-MB-231 > 100 µM | NCI-H460 > 100 µM | SF-268 > 100 µM | NCI/ADR-RES > 100 µM | OVCAR-3 > 100 µM | NCI-H522 > 100 µM | MDA-MB-435 > 63.5 µM | MCF7 > 100 µM | UACC-62 > 100 µM | HOP-62 > 100 µM | OVCAR-5 > 100 µM | KM12 > 100 µM | OVCAR-8 > 100 µM | HT-29 > 100 µM | UO-31 > 31.3 µM | SW-620 > 100 µM

NC(Cc1nnn[nH]1)C(=O)O (stereo unspecified)
inactive: SNB-19 > 100 µM | RPMI-8226 > 100 µM | NCI-H226 > 100 µM | MDA-MB-231 > 100 µM | NCI-H460 > 100 µM | SF-268 > 100 µM | NCI/ADR-RES > 100 µM | OVCAR-3 > 100 µM | NCI-H522 > 100 µM | MDA-MB-435 > 100 µM | MCF7 > 100 µM | UACC-62 > 100 µM | HOP-62 > 100 µM | OVCAR-5 > 100 µM | KM12 > 100 µM | OVCAR-8 > 100 µM | HT-29 > 100 µM | NCI-H23 > 100 µM | SW-620 > 100 µM

O=C(C(Cl)=C(N1CCCCC1)N1CCCCC1)C(Cl)Cl
inactive: SNB-19 > 100 µM | RPMI-8226 > 100 µM | NCI-H226 > 100 µM | MDA-MB-231 > 100 µM | NCI-H460 > 100 µM | SF-268 > 100 µM | NCI/ADR-RES > 100 µM | OVCAR-3 > 100 µM | NCI-H522 > 100 µM | MDA-MB-435 > 100 µM | MCF7 > 100 µM | UACC-62 > 100 µM | HOP-62 > 100 µM | KM12 > 100 µM | OVCAR-8 > 100 µM | HT-29 > 100 µM | NCI-H23 > 100 µM | UO-31 > 100 µM | SW-620 > 100 µM

O=C(/C=C/c1c(O)nc2ccccc2c1O)CC(=O)C(=O)Nc1cccc(O)c1
inactive: SNB-19 > 100 µM | RPMI-8226 > 100 µM | NCI-H226 > 100 µM | MDA-MB-231 > 100 µM | NCI-H460 > 100 µM | SF-268 > 100 µM | NCI/ADR-RES > 100 µM | OVCAR-3 > 100 µM | NCI-H522 > 100 µM | MDA-MB-435 > 100 µM | MCF7 > 100 µM | UACC-62 > 100 µM | OVCAR-5 > 100 µM | KM12 > 100 µM | OVCAR-8 > 100 µM | HT-29 > 100 µM | NCI-H23 > 100 µM | UO-31 > 100 µM | SW-620 > 100 µM

CCOC(=O)c1cc(C2=C(S)N(CC(C)CC)CC2)c(C(=O)CC)[nH]1 (stereo unspecified)
inactive: SNB-19 19.1 µM | RPMI-8226 5.36 µM | NCI-H226 23.5 µM | MDA-MB-231 15.6 µM | NCI-H460 20.6 µM | SF-268 21.9 µM | NCI/ADR-RES 29.5 µM | NCI-H522 14.9 µM | MDA-MB-435 15.5 µM | MCF7 21.3 µM | UACC-62 16.6 µM | KM12 16.9 µM | OVCAR-8 21.5 µM | HT-29 22.4 µM | NCI-H23 19.5 µM | UO-31 16.8 µM | SW-620 6.01 µM

CC(=O)Nc1ccc(C(O)/C(=N/N)c2nc3ccc(Cl)cc3nc2O)cc1 (stereo unspecified)
inactive: SNB-19 > 100 µM | NCI-H226 > 100 µM | MDA-MB-231 > 100 µM | NCI-H460 > 100 µM | SF-268 > 100 µM | NCI/ADR-RES > 100 µM | OVCAR-3 > 100 µM | NCI-H522 > 100 µM | MDA-MB-435 > 100 µM | MCF7 > 100 µM | UACC-62 > 100 µM | HOP-62 > 100 µM | OVCAR-5 > 100 µM | KM12 > 100 µM | OVCAR-8 > 100 µM | HT-29 > 100 µM | NCI-H23 > 100 µM | UO-31 > 100 µM | SW-620 > 100 µM
